Test results as given in BigSolDB 2.1.

COc1cc(Cl)c(OC)cc1N
Details	solubility (mole fraction)
in ethanol, 279.35 K	0.00274
in ethanol, 282.65 K	0.00327
in ethanol, 286.45 K	0.00386
in ethanol, 289.55 K	0.00447
in ethanol, 292.15 K	0.00497
in ethanol, 295.55 K	0.00579
in ethanol, 299.45 K	0.00695
in ethanol, 303.05 K	0.00821
in ethanol, 305.85 K	0.00938
in ethanol, 310.25 K	0.0115
in ethanol, 313.95 K	0.0137
in ethanol, 317.65 K	0.0164
in ethanol, 321.55 K	0.0201
in ethanol, 325.05 K	0.024
in ethanol, 328.65 K	0.0289
in ethanol, 331.55 K	0.0344
in ethanol, 335.25 K	0.0416
in m-xylene, 277.35 K	0.00495
in m-xylene, 281.85 K	0.00615
in m-xylene, 286.05 K	0.00739
in m-xylene, 289.95 K	0.00877
in m-xylene, 292.85 K	0.0103
in m-xylene, 296.25 K	0.012
in m-xylene, 299.35 K	0.0139
in m-xylene, 302.35 K	0.016
in m-xylene, 305.55 K	0.0186
in m-xylene, 309.25 K	0.0219
in m-xylene, 312.75 K	0.0262
in m-xylene, 316.95 K	0.0318
in m-xylene, 321.25 K	0.0386
in m-xylene, 325.05 K	0.0466
in m-xylene, 328.65 K	0.0561
in m-xylene, 332.35 K	0.0669
in m-xylene, 335.65 K	0.0791
in methanol, 278.05 K	0.00282
in methanol, 282.45 K	0.00342
in methanol, 285.85 K	0.00399
in methanol, 289.45 K	0.00465
in methanol, 292.75 K	0.0054
in methanol, 296.65 K	0.00634
in methanol, 299.85 K	0.00734
in methanol, 303.35 K	0.00852
in methanol, 306.55 K	0.0099
in methanol, 309.95 K	0.0115
in methanol, 313.45 K	0.0134
in methanol, 316.45 K	0.0156
in methanol, 319.35 K	0.0181
in methanol, 322.45 K	0.0212
in methanol, 325.45 K	0.0247
in methanol, 328.85 K	0.0289
in o-xylene, 278.25 K	0.0058
in o-xylene, 281.85 K	0.00699
in o-xylene, 285.55 K	0.00831
in o-xylene, 289.15 K	0.00989
in o-xylene, 292.75 K	0.0117
in o-xylene, 296.05 K	0.0136
in o-xylene, 299.45 K	0.0158
in o-xylene, 303.25 K	0.0184
in o-xylene, 307.05 K	0.0214
in o-xylene, 310.35 K	0.0252
in o-xylene, 313.65 K	0.0298
in o-xylene, 317.55 K	0.0358
in o-xylene, 321.85 K	0.0443
in o-xylene, 326.25 K	0.0549
in o-xylene, 330.95 K	0.0677
in o-xylene, 335.05 K	0.0816
in p-xylene, 288.55 K	0.00855
in p-xylene, 291.65 K	0.00985
in p-xylene, 294.95 K	0.0115
in p-xylene, 298.45 K	0.0134
in p-xylene, 302.25 K	0.0158
in p-xylene, 306.05 K	0.0186
in p-xylene, 309.65 K	0.022
in p-xylene, 313.55 K	0.026
in p-xylene, 317.65 K	0.031
in p-xylene, 321.25 K	0.0371
in p-xylene, 325.25 K	0.0447
in p-xylene, 329.55 K	0.0539
in p-xylene, 334.25 K	0.0651
in toluene, 277.65 K	0.0065
in toluene, 281.95 K	0.00831
in toluene, 286.05 K	0.0101
in toluene, 290.05 K	0.0126
in toluene, 293.35 K	0.0146
in toluene, 296.45 K	0.0169
in toluene, 299.65 K	0.0194
in toluene, 302.75 K	0.0224
in toluene, 306.25 K	0.0263
in toluene, 309.95 K	0.0312
in toluene, 313.75 K	0.0373
in toluene, 317.65 K	0.0447
in toluene, 321.75 K	0.0536
in toluene, 325.45 K	0.0641
in toluene, 328.95 K	0.0761
in toluene, 332.25 K	0.0894
in toluene, 335.35 K	0.104

COc1cc([N+](=O)[O-])c(OC)cc1Cl
Details	solubility (mole fraction)
in ethanol, 276.95 K	0.00042
in ethanol, 281.05 K	0.000522
in ethanol, 285.25 K	0.000644
in ethanol, 288.25 K	0.000757
in ethanol, 291.45 K	0.000892
in ethanol, 295.75 K	0.00109
in ethanol, 300.15 K	0.00135
in ethanol, 305.55 K	0.00172
in ethanol, 310.45 K	0.00219
in ethanol, 314.85 K	0.00274
in ethanol, 319.65 K	0.0034
in ethanol, 323.65 K	0.00409
in ethanol, 327.25 K	0.0048
in ethanol, 330.25 K	0.00558
in ethanol, 333.35 K	0.00649
in ethanol, 336.65 K	0.00764
in ethanol, 340.45 K	0.00921
in m-xylene, 277.05 K	0.00728
in m-xylene, 279.95 K	0.00788
in m-xylene, 283.15 K	0.00872
in m-xylene, 286.15 K	0.00994
in m-xylene, 290.05 K	0.0118
in m-xylene, 295.35 K	0.0146
in m-xylene, 300.75 K	0.0178
in m-xylene, 305.05 K	0.0209
in m-xylene, 308.85 K	0.024
in m-xylene, 312.15 K	0.0272
in m-xylene, 315.45 K	0.0305
in m-xylene, 318.55 K	0.0341
in m-xylene, 321.75 K	0.0382
in m-xylene, 325.05 K	0.0432
in m-xylene, 328.45 K	0.049
in m-xylene, 332.05 K	0.0561
in m-xylene, 335.35 K	0.0645
in m-xylene, 338.95 K	0.0747
in methanol, 279.35 K	0.000449
in methanol, 282.75 K	0.000517
in methanol, 285.55 K	0.000598
in methanol, 288.85 K	0.000716
in methanol, 293.45 K	0.000895
in methanol, 297.55 K	0.00109
in methanol, 301.75 K	0.00131
in methanol, 305.85 K	0.00156
in methanol, 309.55 K	0.00187
in methanol, 313.25 K	0.00223
in methanol, 316.85 K	0.00266
in methanol, 320.75 K	0.00318
in methanol, 324.85 K	0.00383
in methanol, 329.05 K	0.00464
in o-xylene, 277.75 K	0.00864
in o-xylene, 280.45 K	0.00956
in o-xylene, 283.55 K	0.0107
in o-xylene, 287.05 K	0.0123
in o-xylene, 291.45 K	0.0145
in o-xylene, 296.25 K	0.0174
in o-xylene, 301.25 K	0.0209
in o-xylene, 305.65 K	0.0245
in o-xylene, 309.45 K	0.0283
in o-xylene, 313.25 K	0.0323
in o-xylene, 316.85 K	0.0367
in o-xylene, 320.55 K	0.0418
in o-xylene, 323.95 K	0.0476
in o-xylene, 327.55 K	0.0544
in o-xylene, 331.35 K	0.0624
in o-xylene, 335.25 K	0.0719
in o-xylene, 339.35 K	0.0831
in p-xylene, 289.55 K	0.0126
in p-xylene, 293.65 K	0.0145
in p-xylene, 297.55 K	0.0168
in p-xylene, 301.95 K	0.0198
in p-xylene, 306.15 K	0.023
in p-xylene, 310.25 K	0.0266
in p-xylene, 313.85 K	0.0304
in p-xylene, 317.55 K	0.0347
in p-xylene, 321.15 K	0.0396
in p-xylene, 324.65 K	0.0454
in p-xylene, 328.45 K	0.0522
in p-xylene, 332.35 K	0.0604
in p-xylene, 336.65 K	0.07
in toluene, 277.45 K	0.00969
in toluene, 280.55 K	0.0107
in toluene, 283.85 K	0.0122
in toluene, 287.85 K	0.0145
in toluene, 293.05 K	0.0178
in toluene, 297.95 K	0.0211
in toluene, 301.85 K	0.0241
in toluene, 305.35 K	0.0273
in toluene, 308.75 K	0.0308
in toluene, 312.35 K	0.0347
in toluene, 315.85 K	0.0393
in toluene, 319.45 K	0.045
in toluene, 323.45 K	0.052
in toluene, 327.75 K	0.061
in toluene, 332.75 K	0.0726
in toluene, 337.35 K	0.0852
